Patent US6861430B2, “β-carboline derivatives and its pharmaceutical use against depression and anxiety” (Novartis AG, priority 2001, dated 2005)

Columns and labels:
[1] = molecular target: somatostatin sst3 receptors (Homo sapiens, UniProt P32745); experiment: radioligand binding, somatostatin receptor expressing cell cultures; conditions: sst3 versus other somatostatin receptors
From the text: (§1) In particular the agents of the invention show high affinity to somatostatin receptors. More particularly they are selective antagonists at somatostatin sst3 receptors, previously called SSTR-3 receptors (see Hoyer et al., TiPS, 1995, 16; 86-88), as determined in radioligand binding and second messenger studies [see for example K. Kaupmann et al., FEBS Letts. 1993, 331:53-59.

human sst3 receptor = human sst3 receptor (Homo sapiens, UniProt P32745); experiment: radioligand binding, human sst3 receptor; conditions: read-out: pKd, human receptor (converted)
Chain of human sst3 receptor (P32745 whole entry): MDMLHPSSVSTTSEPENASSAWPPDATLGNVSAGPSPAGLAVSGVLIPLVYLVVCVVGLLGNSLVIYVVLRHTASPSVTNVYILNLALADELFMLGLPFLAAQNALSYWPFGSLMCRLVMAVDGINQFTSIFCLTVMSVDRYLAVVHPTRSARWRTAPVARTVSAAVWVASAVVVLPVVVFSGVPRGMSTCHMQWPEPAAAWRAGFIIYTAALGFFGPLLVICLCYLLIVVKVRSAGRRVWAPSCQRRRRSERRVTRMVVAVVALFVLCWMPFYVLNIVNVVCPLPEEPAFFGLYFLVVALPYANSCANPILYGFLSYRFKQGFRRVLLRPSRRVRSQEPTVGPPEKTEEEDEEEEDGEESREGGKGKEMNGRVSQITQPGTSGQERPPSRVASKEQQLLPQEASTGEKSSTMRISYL
From the text: as §1
(§2) The preferred agent of the invention for the above-mentioned indications is the (R)-1,1-bis-ethoxymethyl-3-(4-phenyl-1H-imidazol-2-yl)-2,3,4,9-tetrahydro-1H-β-carboline, in free base or acid addition salt form. […] In the forced swim test (Porsolt), the immobility time is shortened by 30-45% on subchronic administration of 12.5-25 mg/kg p.o.

mouse sst3 receptor = mouse sst3 receptor (Mus musculus, UniProt P30935); experiment: radioligand binding, mouse sst3 receptor; conditions: read-out: pKd, mouse receptor (converted)
Chain of mouse sst3 receptor (P30935 whole entry): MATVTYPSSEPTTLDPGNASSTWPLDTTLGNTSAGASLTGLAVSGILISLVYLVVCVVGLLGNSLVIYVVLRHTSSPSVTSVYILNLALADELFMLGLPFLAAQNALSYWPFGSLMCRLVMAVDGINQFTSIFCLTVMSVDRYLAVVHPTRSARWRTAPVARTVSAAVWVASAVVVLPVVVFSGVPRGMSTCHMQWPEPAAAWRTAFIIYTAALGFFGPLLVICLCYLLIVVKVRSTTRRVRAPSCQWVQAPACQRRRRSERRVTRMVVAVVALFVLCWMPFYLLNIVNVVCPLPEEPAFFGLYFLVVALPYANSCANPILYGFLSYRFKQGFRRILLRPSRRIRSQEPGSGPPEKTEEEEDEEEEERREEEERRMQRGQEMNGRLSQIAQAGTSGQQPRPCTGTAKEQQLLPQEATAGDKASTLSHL
From the text: as §1, §2

rats = experiment: social exploration test / social contact assay; format: in vivo; conditions: rat
Description: In the social exploration test at doses of about 0.01 to 10 mg/kg p.o., the agents of the invention increase social contact time of rats similarly to classical anxiolytics such as benzodiazepines e.g. chlordiazepoxide or NK1 antagonists (Vassout A, Veenstra S, Hauser K, Ofner S, Brugger F, Schilling W, Gentsch C, Regulatory Peptides. 2000; 96, 7-16).
as §2

passive avoidance test = format: in vivo; conditions: 0.1, 1 or 10 mg/kg p.o.
mice = experiment: social recognition test; format: in vivo; conditions: doses between 0.03 and 3 mg/kg p.o.
Description: The agents of the invention at 0.03-3 mg/kg p.o. enhance leaming/mlmory in mice as measured in the social recognition test similar to oxiracetam or GABAB blockers (Thor D. H. and Holloway W. R. J. Comp. Physiol. Psychol. 1982; 96: 1000-1006. Mondadori C. et al., Behavioural Brain Research 1996, 77: 227-229).
as §2

rat = experiment: forced swim test (Porsolt), rat; format: in vivo; conditions: subchronic administration of 12.5-25 mg/kg p.o.
Description: The agents of the invention show antidepressant-like effects in the rat, similar to desipramine or fluoxetine when given subchronically (10-30 mg/kg, p.o.) in the forced swim test. (Porsolt, R. D. et al. Nature. 1977: 266, 730-732) and also produce antidepressant-like effects in the mouse, similar to fluoxetine (Porsolt, R. D. et al. Nature 1977: 266, 730-732). Finally, these agents, when given once per day for 14 days, (0.3-30 mg/kg p.o.), reverse both the characteristic hyper-reactivity of bulbectomised rats when first placed in a novel and stressful environment and the total activity, similar to imipramine and desipramine. (Song C and Leonard BE. Hum. Psychopharmacol 1994; 9: 135-146).
as §2

Chain of somatostatin sst3 receptors (P32745 whole entry): as the sequence (P32745 whole entry) above

| SMILES | selectivity over other somatostatin receptors [1] | Kd (human sst3 receptor) [nM] | Kd (mouse sst3 receptor) [nM] | dose of maximal amplitude, social contact assay (rats) | duration of social contacts of the intruder towards the resident (rats; 0.01-10 mg/kg p.o.) | impairment of memory formation in passive avoidance test (passive avoidance test) | social recognition of a familiar partner (mice) | shortening of immobility time (rat) | melting point [°C] |
| --- | --- | --- | --- | --- | --- | --- | --- | --- | --- |
| CCOCC1(COCC)N[C@@H](c2nc(-c3ccccc3)c[nH]2)Cc2c1[nH]c1ccccc21 [Example 10, (R)-1,1-bis-ethoxymethyl-3-(4-phenyl-1H-imidazol-2-yl)-2,3,4,9-tetrahydro-1H-β-carboline] | more than 400 fold | 2.04 | 5.01 | 0.3-3 mg/kg p.o. | increases dose dependently the duration of social contacts | no impairment of memory formation | significant increase of social recognition | 30-45% |  |
| CCCCC1(CCCC)N[C@@H](c2nc(-c3ccncc3)c[nH]2)Cc2c1[nH]c1ccccc21 [Example 1, (R)-1,1-Dibutyl-3-(4-pyridin-4-yl-1H-imidazol-2-yl)-2,3,4,9-tetrahydro-1H-β-carboline] |  |  |  |  |  |  |  |  | 200 to 205 |
